The values that follow come from PMC9960827, “Cloning and Characterization of Trypanosoma congolense and T. vivax Nucleoside Transporters Reveal the Potential of P1-Type Carriers for the Discovery of Broad-Spectrum Nucleoside-Based Therapeutics against Animal African Trypanosomiasis” (International Journal of Molecular Sciences, 2023).

The structures appear in SMILES notation. Where two headings read alike, the source gives them in different places. Marks after values point to notes of the source that are not given here. Where only a bound is given, the exact number is not on record here.

One series deals with T.b.b. B48. Kind of series: Alamar Blue (resazurin) assay, T. b. brucei B48. It counts as cell-based, Trypanosoma brucei brucei. The following applies: multidrug-resistant strain, resazurin; read-out: T.b.b. B48 EC50. Here is the method:
(§1) EC50 values were determined by plotting to an equation for a sigmoid curve with variable slope (GraphPad Prism 8). All values were the average of at least three independent determinations on different days.

The subject of the next series is T. evansi. Kind of series: Alamar Blue (resazurin) assay, T. evansi. The series is classed as cell-based, Trypanosoma evansi. The following applies: resazurin; read-out: T. evansi EC50. Here is the method:
as §1
A general note: The colour change of resazurin is a common sign of viable cells or microbes.

Series [1] has as its system human embryonic kidney (HEK) cells. In words: Resazurin toxicity assay on human embryonic kidney cells. It counts as cell-based. The following applies: for SI T. congolense: selectivity index = EC50 (HEK cells)/EC50 (T. congolense); for SI T. equiperdum: selectivity index = EC50 (HEK cells)/EC50 (T. equiperdum); for SI T. evansi: selectivity index = EC50 (HEK cells)/EC50 (T. evansi). The method, then:
as §1

For series [2], the system named is T. vivax. In words: T. vivax EC50 (from Mabille et al.). It counts as cell-based, Trypanosoma vivax. The following applies: from Table 8 data.
In series [3] the test system is T. vivax. On the set-up: method as in Mabille et al. [69]. The following applies: added for comparison only; ref Mabille et al. [69]; cited from earlier work.
Series [4] relates to T. congolense 6C3. In words: microbe, parasite or virus in culture. The series is classed as cell-based, Trypanosoma congolense. The following applies: for EC50: diminazene resistant strain, resazurin, read-out: T. congolense 6C3 EC50; for T. congolense 6C3 RF: resistance factor = EC50 (test strain)/EC50(control strain). The method, then: as §1
The subject of the next series is L. mexicana Cas9. Kind of series: Resazurin drug sensitivity assay, LmexCas9. It counts as cell-based, Leishmania mexicana. The following applies: resazurin, promastigotes; read-out: LmexCas9 EC50. Here is the method: as §1
For the next series, the system named is L. mexicana SUPKO+TcoAT1. In words: microbe, parasite or virus in culture. It counts as cell-based, Leishmania mexicana. The following applies: for SUPKO+TcoAT1 RF (SUPKO): Resistance Factor relative to SUPKO; for EC50: resazurin, promastigotes, read-out: SUPKO+TcoAT1 EC50. The method, then: as §1
The test system of the next series is L. mexicana SUPKO+TvxNT3. Kind of series: microbe, parasite or virus in culture. It counts as cell-based, Leishmania mexicana. The following applies: for SUPKO+TvxNT3 RF (SUPKO): Resistance Factor relative to SUPKO; for EC50: resazurin, promastigotes, read-out: SUPKO+TvxNT3 EC50. The method, then:
as §1

The next series deals with L. mexicana SUPKO. In words: microbe, parasite or virus in culture. It counts as cell-based, Leishmania mexicana. The following applies: for SUPKO RF (Cas9): Resistance Factor = EC50(SUPKO)/EC50(Cas9); for EC50: resazurin, promastigotes, read-out: SUPKO EC50. The method, then: as §1
The test system of a further series is T. equiperdum. In words: Alamar Blue (resazurin) assay, T. equiperdum. It counts as cell-based, Trypanosoma equiperdum. The following applies: resazurin; read-out: T. equiperdum EC50. The method, then:
as §1

The test system of series [5] is T. congolense IL3000. In words: Alamar Blue (resazurin) assay, T. congolense IL3000. It counts as cell-based, Trypanosoma congolense. The following applies: BSF, resazurin; read-out: T. congolense IL3000 EC50. The method, then:
as §1

The subject of series [6] is T. congolense 6C3. On the set-up: method as in Hulpia et al. [38]. The following applies: values marked *; ref Hulpia et al. [38]; cited from earlier work.
For series [7], the system named is T. congolense IL3000. On the set-up: method as in Hulpia et al. [38]. The following applies: values marked *; ref Hulpia et al. [38]; cited from earlier work.
Series [8] addresses T. congolense adenosine transporter. Kind of series: [3H]-adenosine uptake and its inhibition in T. congolense IL3000 bloodstream forms. The series is classed as cell-based, Trypanosoma congolense. The method, then:
(§2) Uptake assays using radiolabeled trypanocides and/or nucleosides were carried out as described previously. Briefly, parasite cultures were harvested, washed twice in assay buffer (33 mM HEPES, 98 mM NaCl, 4.6 mM KCl, 0.5 mM CaCl2, 0.07 mM MgSO4, 5.8 mM NaH3PO4, 0.03 mM MgCl2, 23 mM NaHCO3, 14 mM D-glucose, pH 7.3), then resuspended and adjusted to a density of 1 × 10^8 cells/mL in assay buffer. The radiolabeled permeant in the presence or absence of different concentrations of potential inhibitors reconstituted in 100 μL assay buffer was deposited on top of 250 μL oil mix in microcentrifuge tubes; 1 × 10^7 parasites in 100 μL assay buffer were added to the tube and incubated for a pre-determined interval. The reaction was stopped by the addition of 1 mL of a high concentration of ice-cold unlabeled substrate in assay buffer (‘stop solution’) and centrifugation, or by immediate centrifugation at […] as appropriate. The microcentrifuge tubes were flash-frozen, and the bottom of each tube containing the cell pellet was cut off and transferred to a scintillation vial. Cell pellets were lysed in 2% SDS, after which scintillation fluid (Scintlogic U, Lablogic) was added, followed by overnight incubation in the dark. Scintillation was measured in a 300SL (Hidex) scintillation counter (Hidex). All the assays were conducted in triplicate and analysis was carried out using Microsoft Excel and GraphPad Prism. All kinetic parameters were obtained on at least 3 separate occasions.
(§3) The dose-dependent uptake assay allowed for the affinity of nucleoside analogs to different nucleoside transporters to be determined by measuring the extent to which the analogs compete with and inhibit the uptake of radiolabel adenosine. This allowed for the determination of biochemical parameters such as Km and Vmax through the application of the Michaelis–Menten equation V0 = Vmax([substrate]/([substrate] + Km)). The 50% Inhibitory Concentration (IC50) of the purines and pyrimidines and their analogs was determined from non-linear regression to sigmoid curves with variable slope (Prism 8), and the IC50 of the inhibitor and the Km of the labeled permeant were then used to calculate the inhibition constant (Ki) of the analogs through the Cheng–Prusoff equation: Ki = IC50/(1 + (L/Km)), where L denotes the radiolabel concentration. The calculated Ki was in turn used to determine the Gibbs free energy (ΔG^0) of the inhibitor–transporter interaction using the equation: ΔG^0 = -RTln(Ki), where R represents the gas constant and T symbolizes the absolute temperature in Kelvin [104].

The next series concerns the target TcoAT1. It counts as cell-based, Trypanosoma congolense. The following applies: 0.05 µM [3H]-adenosine, 10 s; IC50 converted to Ki; read-out: Ki on the transport of [3H]-adenosine.
Source text: The information for the T. congolense adenosine transporter (TcoAT1) and four putative T. vivax nucleoside transporters was obtained in the TritrypDB (tritrypdb.org/tritrypdb) genome database. Primers were designed to flank each gene upstream of the 5′ end (forward) and downstream of the 3′ end (reverse) as described (primer sequences in Supplementary Table S2). Following amplification from the genomic DNA of T. congolense or T. vivax, DNA for each extracted gene was ligated into the pNUS-HcN expression vector doubly digested with NdeI using the NEBuilder kit according to the manufacturer’s instructions (New England Biolabs). Construct was transformed into competent E. coli cells, and ligation was confirmed by restriction enzyme digestion of isolated plasmid DNA followed by Sanger sequencing (Source BioScience, Nottingham, UK). Confirmed plasmids were then transfected into L. mexicana cell line in which both NT1 and NT2 were doubly knocked out (SUPKO) and derived from L. mexicana Cas9 [64] as described. Clones grown in medium containing 50 μg/mL neomycin (G418) were collected for further confirmation by PCR with genomic DNA using a forward primer of the transporter gene and a reverse primer of the plasmid.
as §2, §3

For orientation: EC50 means the concentration that produces a half-maximal response. For the molecule `C#Cc1cn([C@@H]2O[C@H](CO)C[C@H]2O)c2ncnc(N)c12` [FH8505], the half-maximal effective concentration (EC50) in the series on T.b.b. B48 is 0.031 ± 0.004 µM; in the series on T. evansi, 0.0078 ± 0.002 µM; in series [1], 1.17 ± 0.06 µM; in the series with T. vivax [3], 0.16 ± 0.01 µM; with T. congolense 6C3 [4] it was 0.008 ± 0.002 µM; in the series on L. mexicana Cas9, 92.7 ± 4.3 µM. Besides, the concentration giving a half-maximal response (EC50) was 89.9 ± 12.5 µM in the series with L. mexicana SUPKO+TcoAT1; 80 ± 7.7 µM in the series with L. mexicana SUPKO+TvxNT3; more than 100 µM in the series on L. mexicana SUPKO; 0.0026 ± 0.0008 µM in the series with T. equiperdum; 0.017 ± 0.002 µM with T. congolense IL3000 [5]. In addition, the “SI T. congolense” value in series [1] is recorded as 68. Besides, in series [1], the “SI T. equiperdum” value came to 446. In addition, the “SI T. evansi” value in series [1] amounted to 151. In addition, the “fold higher EC50 against T. vivax compared to T. congolense” value in the series with T. vivax [2] was 10–165 fold. The “T. congolense 6C3 RF” value with T. congolense 6C3 [4] is 0.46 ^a. In the series with L. mexicana SUPKO+TcoAT1, the “SUPKO+TcoAT1 RF (SUPKO)” value is given as more than 1.1. Also, the “SUPKO+TvxNT3 RF (SUPKO)” value with L. mexicana SUPKO+TvxNT3 is more than 1.25. For the same molecule, in the series with L. mexicana SUPKO, the “SUPKO RF (Cas9)” value was more than 1.08.

As for `CC(C)Oc1ncnc2c1c(Cl)cn2[C@@H]1O[C@H](CO)[C@@H](O)[C@H]1O` [FH9531], the half-maximal effective concentration (EC50) in the series on T. vivax [3] is 0.12 ± 0.01 µM; in the series on L. mexicana Cas9, more than 100 µM; in the series on T. congolense 6C3 [6], 3.23 ± 0.36 µM; in the series with L. mexicana SUPKO+TcoAT1 it was more than 100 µM; with L. mexicana SUPKO+TvxNT3, more than 100 µM; in the series with L. mexicana SUPKO, more than 100 µM. In addition, in the series with T. congolense IL3000 [7], the concentration for a half-maximal effect (EC50) was 4.04 ± 0.36 µM. Further, the “T. congolense 6C3 RF” value in the series with T. congolense 6C3 [4] is on record as 0.80.

By Ki is commonly meant a dissociation constant, usually derived from enzyme kinetics or from competition with a known ligand. For `Nc1ncnc2c1c(I)cn2[C@@H]1O[C@H](CO)C[C@H]1O` [FH8496], the EC50 was 0.024 ± 0.002 µM with T.b.b. B48; 0.0037 ± 0.0012 µM in the series with T. evansi; 4.91 ± 0.03 µM in series [1]; 0.056 ± 0.001 µM with T. vivax [3]; 0.003 ± 0.0002 µM with T. congolense 6C3 [4]; 51.8 ± 10.3 µM in the series on L. mexicana Cas9. The concentration giving a half-maximal response (EC50) was 23.9 ± 5.6 µM in the series on L. mexicana SUPKO+TcoAT1; 40 ± 9.2 µM with L. mexicana SUPKO+TvxNT3; 52.6 µM in the series on L. mexicana SUPKO; 0.0015 ± 0.0005 µM with T. equiperdum; 0.0054 ± 0.001 µM with T. congolense IL3000 [5]. Moreover, the “SI T. congolense” value in [1] was 902. The “SI T. equiperdum” value in series [1] is given as 3260. Further, in series [1], the “SI T. evansi” value was 1340. Moreover, the Ki turned out to be 46.2 ± 1.7 µM in series [8] (0.05 µM [3H]-adenosine, 30 s, IC50 converted to Ki, read-out: Ki on the transport of [3H]-adenosine) and 135 ± 11 µM on TcoAT1. Further, in [8] (calculated from Km or Ki), the “ΔG0, Gibbs free energy of interaction” value was -5.9 kcal/mol. In addition, the “T. congolense 6C3 RF” value in the series with T. congolense 6C3 [4] turned out to be 0.56. In addition, the “SUPKO+TcoAT1 RF (SUPKO)” value in the series with L. mexicana SUPKO+TcoAT1 is more than 2.2. Also, in the series with L. mexicana SUPKO+TvxNT3, the “SUPKO+TvxNT3 RF (SUPKO)” value was more than 1.2. The “SUPKO RF (Cas9)” value with L. mexicana SUPKO came to 1.01.
